Numbering of substitutions follows the chain as printed. In names and notes the source's numbering stands. Like-named read-outs stand apart in the source and are kept apart here. Values belong to the molecule of their own block, whether it stands above or below them.
Assays:
mODH-582 [1] = system: T1, mODH-582; assay: NAD(P)H absorbance at […] nm, Michaelis-Menten; format: biochemical, hot spring metagenome; details: pyruvate 10 mM, NAD(P)H 0.2 mM, 100 mM sodium phosphate pH 8.0, 30 °C; read-out: L-Phe / KM
T1 construct: N-terminal His-tag, pET14b, E. coli BL21(DE3); codon-optimised synthetic gene; source reads SRR16606022; one of 11 TPA records BK063522-BK063532 (not assigned singly)

mODH-48 = system: T2, mODH-48; assay: NAD(P)H absorbance at […] nm, Michaelis-Menten; format: biochemical, hot spring metagenome; details: pyruvate 10 mM, 100 mM sodium phosphate pH 8.0, 30 °C
T2 construct: N-terminal His-tag, pET14b, E. coli BL21(DE3); codon-optimised synthetic gene; source reads SRR16606022; one of 11 TPA records BK063522-BK063532 (not assigned singly); identical to an obsolete UniParc entry

mODH-49 = system: T3, mODH-49; assay: NAD(P)H absorbance at […] nm, Michaelis-Menten; format: biochemical, hot spring metagenome; details: pyruvate 10 mM, 100 mM sodium phosphate pH 8.0, 30 °C
T3 construct: N-terminal His-tag, pET14b, E. coli BL21(DE3); codon-optimised synthetic gene; source reads SRR16606022; one of 11 TPA records BK063522-BK063532 (not assigned singly)

mODH-55 = system: T4, mODH-55; assay: NAD(P)H absorbance at […] nm, Michaelis-Menten; format: biochemical, hot spring metagenome; details: pyruvate 10 mM, 100 mM sodium phosphate pH 8.0, 30 °C
T4 construct: N-terminal His-tag, pET14b, E. coli BL21(DE3); codon-optimised synthetic gene; source reads SRR16606022; one of 11 TPA records BK063522-BK063532 (not assigned singly)

mODH-45 = system: T5, mODH-45; assay: NAD(P)H absorbance at […] nm, Michaelis-Menten; format: biochemical, hot spring metagenome; details: pyruvate 10 mM, 100 mM sodium phosphate pH 8.0, 30 °C
T5 construct: N-terminal His-tag, pET14b, E. coli BL21(DE3); codon-optimised synthetic gene; source reads SRR16606022; one of 11 TPA records BK063522-BK063532 (not assigned singly)

mODH-582 [2] = system: T1, mODH-582; assay: NAD(P)H absorbance at […] nm, Michaelis-Menten; format: biochemical, hot spring metagenome; details: pyruvate 10 mM, 100 mM sodium phosphate pH 8.0, 30 °C
mODH-47 = system: T6, mODH-47; assay: NAD(P)H absorbance at […] nm, Michaelis-Menten; format: biochemical, hot spring metagenome; details: pyruvate 10 mM, 100 mM sodium phosphate pH 8.0, 30 °C
T6 construct: N-terminal His-tag, pET14b, E. coli BL21(DE3); codon-optimised synthetic gene; source reads SRR16606022; one of 11 TPA records BK063522-BK063532 (not assigned singly)

purified protein [3] = substrate: N[C@@H](Cc1ccccc1)C(=O)O; assay: purified protein; format: biochemical, Arthrobacter sp. 1C; details: pyruvate 10 mM, NAD(P)H 0.2 mM, 100 mM sodium phosphate pH 8.0, 30 °C
[4] = substrate: NC(=O)C1=CN([C@@H]2O[C@H](COP(=O)(O)OP(=O)(O)OC[C@H]3O[C@@H](n4cnc5c(N)ncnc54)[C@H](O)[C@@H]3O)[C@@H](O)[C@H]2O)C=CC1; assay: purified protein, by the assay type; parameters: Michaelis-Menten kinetics of reductive amination with pyruvate, NAD(P)H consumption by absorbance at 340 nm, 30 °C, pH 8.0
Method: (§1) Enzyme activities were measured spectrophotometrically at 30 °C in 96-well half-area plates in a Thermo Scientific™ Multiskan SkyHigh Microplate Spectrophotometer (Thermo Fisher Scientific Inc., Waltham, MA, USA). Standard assays were carried out by using 15 mM amino acid and 0.2 mM NAD(P)H in 100 mM sodium phosphate buffer (pH = 8.0). The reaction was started by the addition of 10 mM pyruvate. The decrease in absorbance was monitored at 340 nm. Initial velocities (v0) were calculated from the linear section of the plots using an NAD(P)H calibration. For the determination of kinetic constants, amino acid concentrations were varied between 1 and 30 mM, while cofactor concentrations were between 0.04 and 0.5 mM. Depending on the specific activities of each enzyme, enzyme concentrations were fixed between 0.015 and 1.5 µM (Tables S9-S12). Kinetic constants were determined from the Michaelis–Menten plots using GraphPad Prism software (Tables S9-S12, Figures S15-S18). Heat stability experiments were carried out by incubating the enzymes at 40, 50, or 60 °C for 1 h before measuring their specific activities. Nine selected mODH genes as well as the coding sequence of ArODH were codon optimized for E. coli, synthesized by Genescript and cloned into pET14b vector using NdeI and BamHI cloning sites resulting in N-terminal His-tag proteins (for protein and nucleotide sequences see Table S2). Plasmids were transformed into E.coli BL21(DE3) chemically competent cells, and 5 mL overnight cultures were grown in Luria–Bertani (LB) medium supplemented with carbenicillin. Then, 4 mL was added to 500 mL fresh LB medium. The culture was grown at 37 °C to OD = 0.5 and induced by addition of 0.5 mM IPTG. The flasks were then incubated in a shaker at 18 °C overnight. The cells were harvested by centrifugation at 4000 rpm, 4 °C for 30 min. The pellets were resuspended in lysis buffer (50 mM Tris pH = 8.5, 300 mM NaCl, 1 mM benzamidine, 2 mM [compound left out] [compound left out], 1 mM Tris(2-carboxyethyl)phosphine (TCEP), DNase) and lysed by ultrasonication. The suspension was centrifuged at 11,000 rpm, 4 °C for 30 min. The supernatant was loaded onto equilibrated Ni–NTA column and washed with 15 mM imidazole in lysis buffer. The bound protein was eluted with 250 mM imidazole in lysis buffer and then dialyzed in 50 mM Tris pH = 8.5. The resulting solution was aliquoted after addition of 10% glycerol and then stored at − 20 °C until further use. Total protein concentration was determined based on absorption at 280 nm measured on a NanoDrop spectrophotometer. With this method, six mODHs and ArODH could be purified (see Table S2). Three mODHs were not expressed in soluble form in this experimental setting.

[5] = substrate: N[C@@H](Cc1ccccc1)C(=O)O; assay: purified protein, by the assay type; parameters: Michaelis-Menten kinetics of reductive amination with pyruvate, NAD(P)H consumption by absorbance at 340 nm, 30 °C, pH 8.0
Method: as §1

purified protein [6] = substrate: N[C@@H](CC(=O)O)C(=O)O; assay: purified protein; details: pyruvate 10 mM, NAD(P)H 0.2 mM, 100 mM sodium phosphate pH 8.0, 30 °C
[7] = L-Asp 15 mM, read-out: NADH / KM
[8] = L-Asp 15 mM, read-out: NADPH / KM
[9] = NAD(P)H 0.2 mM, read-out: L-Asp / KM

Molecule: N[C@@H](Cc1ccccc1)C(=O)O [L-Phe]
Km (mODH-582 [1]): 32700 ± 4700 µM

Km (mODH-48; [7]): 93 ± 15 µM
Km (mODH-49; [7]): 1830 ± 423 µM
Km (mODH-55; [7]): 442 ± 63 µM
Km (mODH-45; [7]): 447 ± 64 µM
Km (mODH-582 [2]; [7]): 29 ± 11 µM
Molecule: NC(=O)C1=CN([C@@H]2O[C@H](COP(=O)(O)OP(=O)(O)OC[C@H]3O[C@@H](n4cnc5c(N)ncnc54)[C@H](O)[C@@H]3O)[C@@H](O)[C@H]2O)C=CC1 [NADH]

Km (mODH-48; [8]): 17 ± 7 µM
Km (mODH-47; [8]): 93 ± 21 µM
Km (mODH-49; [8]): 85 ± 17 µM
Km (mODH-55; [8]): 68 ± 13 µM
Km (mODH-45; [8]): 118 ± 24 µM
Km (mODH-582 [2]; [8]): 318 ± 112 µM
Molecule: NC(=O)C1=CN([C@@H]2O[C@H](COP(=O)(O)OP(=O)(O)OC[C@H]3O[C@@H](n4cnc5c(N)ncnc54)[C@H](OP(=O)(O)O)[C@@H]3O)[C@@H](O)[C@H]2O)C=CC1 [NADPH]

Km (mODH-48; [9]): 500 ± 100 µM
Km (mODH-47; [9]): 1200 ± 300 µM
Km (mODH-49; [9]): 15000 ± 2300 µM
Km (mODH-55; [9]): 1500 ± 200 µM
Km (mODH-45; [9]): 21500 ± 5300 µM
Km (mODH-582 [2]; [9]): 24800 ± 4600 µM
Molecule: N[C@@H](CC(=O)O)C(=O)O [compound 3, L-Asp]

B1: ArODH (Arthrobacter sp. 1C) (protein)
chain: MIESKTYAVLGLGNGGHAFAAYLALKGQSVLAWDIDAQRIKEIQDRGAIIAEGPGLAGTAHPDLLTSDIGLAVKDADVILIVVPAIHHASIAANIASYISEGQLIILNPGATGGALEFRKILRENGAPEVTIGETSSMLFTCRSERPGQVTVNAIKGAMDFACLPAAKAGWALEQIGSVLPQYVAVENVLHTSLTNVNAVMHPLPTLLNAARCESGTPFQYYLEGITPSVGSLAEKVDAERIAIAKAFDLNVPSVCEWYKESYGQSPATIYEAVQGNPAYRGIAGPINLNTRYFFEDVSTGLVPLSELGRAVNVPTPLIDAVLDLISSLIDTDFRKEGRTLEKLGLSGLTAAGIRSAVE
notes: N-terminal His-tag, pET14b, E. coli BL21(DE3); codon-optimised synthetic gene
Km (purified protein [3]): 1400 ± 500 µM
kcat (purified protein [3]): 861 ± 70 s⁻¹
kcat/Km (purified protein [3]): 630000 M⁻¹ s⁻¹
Km [4]: 292 ± 77 µM
Vmax [4]: 0.11 µmol/min
kcat [4]: 1240 ± 174 s⁻¹
Km [5]: 18100 ± 4500 µM
Vmax [5]: 0.001 µmol/min
kcat [5]: 11.1 ± 1.5 s⁻¹

B2: ArODH (Arthrobacter sp. 1C; A111R/N198G) (protein)
chain: B1 chain with A111R, N198G
Km (purified protein [6]): 58300 ± 19600 µM
kcat (purified protein [6]): 2.8 s⁻¹
kcat/Km (purified protein [6]): 50 M⁻¹ s⁻¹

Source: PMC10787698, “Discovery and biocatalytic characterization of opine dehydrogenases by metagenome mining” (Applied Microbiology and Biotechnology, 2024)
